Data taken from patent US11185068B2, “Diluent for sperm and method for preserving sperm using same” (Livestock Improvement Association of Japan, Inc., priority 2016, dated 2021).

System: thawed bovine sperm
Method: Semen collected from a breeding bull kept at Livestock Improvement Association of Japan was diluted with primary and secondary diluents prepared in the same manner as in Example 1 except that 30 g of fructo-oligosaccharide or 30 g of isomalto-oligosaccharide was added. The semen was diluted so that the final concentration of glycerin was 7%, thereby obtaining diluted sperm solutions. As a control group with soybean lecithin and devoid of fructo-oligosaccharide and isomalto-oligosaccharide, semen was diluted with the diluent described in Example 1 of Patent Document 4, the diluent having a final glycerin concentration of 7%. As a control group with egg yolk and devoid of fructo-oligosaccharide and isomalto-oligosaccharide, semen was diluted with the diluent described in Patent Document 1, produced and sold by Livestock Improvement Association of Japan for preparation of frozen semen, the diluent having a final glycerin concentration of 6.5%. Semen was diluted with each of these diluents so that the diluted semen contained 80 million sperm per ml. The second diluent was added to the primarily diluted semen at a ratio of 1:1 so that the semen contained 40 million sperm per ml. Straws for artificial insemination were then prepared by conventional methods. Cryopreservation was performed using liquid nitrogen by conventional methods. […]

Substance	adverse influence on the oocyte penetration ability of sperm and the development ability of fertilized embryo
isomalto-oligosaccharide	substantially no adverse influence
fructo-oligosaccharide	substantially no adverse influence
